Several values for one entry are separate records, joined by “and”; a condition that tells them apart may be missing. Equal values may be shown once.
Biological target: T1, CYP2A6 (Homo sapiens, UniProt P11509)
T1 sequence (P11509 1-494): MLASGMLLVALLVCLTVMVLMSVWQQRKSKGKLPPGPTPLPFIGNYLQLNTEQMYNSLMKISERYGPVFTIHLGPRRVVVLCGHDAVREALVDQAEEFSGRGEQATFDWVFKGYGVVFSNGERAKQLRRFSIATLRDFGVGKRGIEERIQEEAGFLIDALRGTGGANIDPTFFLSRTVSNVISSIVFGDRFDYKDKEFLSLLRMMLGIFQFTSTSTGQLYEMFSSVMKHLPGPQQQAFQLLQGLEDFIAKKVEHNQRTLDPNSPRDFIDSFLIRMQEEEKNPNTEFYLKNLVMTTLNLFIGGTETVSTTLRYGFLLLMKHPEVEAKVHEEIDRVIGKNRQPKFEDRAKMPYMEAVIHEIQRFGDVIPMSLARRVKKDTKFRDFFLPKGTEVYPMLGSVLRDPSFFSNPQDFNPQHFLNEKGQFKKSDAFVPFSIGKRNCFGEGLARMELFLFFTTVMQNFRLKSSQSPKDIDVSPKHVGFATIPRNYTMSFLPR
Assay: Metabolism in transgenic HEK293 cells expressing CYP2A6
Assay type: in vitro ADME
Design: V5-His (vector-encoded) (C); expressed in transfected cells
Details: 20 µM parent PCB, 24 h; for Quantification of metabolites generated from PCB28, 52, and 101: supernatant
Method: For the generation of transgenic cell lines, we used semi-adherent HEK293 cells (DSMZ, ACC305, human embryonic kidney cells) which were cultured on a daily basis in DMEM medium supplemented with 10% (FCS) and 1% penicillin/streptomycin. In a first step CYP1A2, CYP2C8, CYP2C9, CYP3A4, CYP2A6, and CYP2E1 cDNA were cloned into the plasmid pcDNATM3.1/V5-His TOPO® using human liver RNA as a template and using the following primers: CYP1A2 for5′-[…]-3′, CYP1A2 rev 5′-[…]-3′; CYP2C8 for 5′-[…]-3′, CYP2C8 rev 5′-[…]-3′; CYP2C9 for 5′-[…]-3′, CYP2C9 rev 5′-[…]-3′; CYP3A4 for 5′-[…]-3′, CYP3A4 rev 5′-[…]-3′, CYP2A6 for 5′-[…]-3′, CYP2A6 rev 5′-[…]-3′; CYP2E1 for 5′-[…]-3′, CYP2E1 rev 5′-[…]-3′. Final constructs were verified with Sanger DNA sequencing and restriction digestion. For transfection, 3 × 10^6 HEK293 cells were pre-incubated in a 10 cm dish in DMEM medium with 10% FCS, but without antibiotics, for 18 to 24 h. When the cells reached approximately 70% confluency, they were transfected using TransIT-LT1 transfection reagent (Biozol, Eiching, Germany). The TransIT-LT1 reagent was warmed to room temperature and vortexed. 1.63 mL Opti-MEM, 16.25 µL plasmid DNA (1 µg/µL), and 48.75 µL TransIT-LT1 reagent were mixed and incubated for 15 to 30 min. The mixture was then added dropwise to the medium of the cells, and the cells were incubated again at 37 °C and 5% CO2. After 24 h, the medium was replaced with standard medium and geneticin was added for selection (1 mg/mL). Cells were selected for 6–8 weeks in bulk culture, and single cell clones were obtained subsequently by limiting dilution. Each clone was checked for insertion by PCR using genomic DNA as a template.
Parallel samples were run without the addition of PCBs. At a confluence of 80%, PCBs (20 μM each, dissolved in ethanol) were added and cells were incubated for 24 h before harvest of supernatants. Supernatants were diluted 1:2 with 80 μL acetate buffer 0.1 M (pH = 5.3). 100 μL of this dilution were further incubated with 100 μL of ammonium acetate buffer 0.1 M (pH = 5.3) and 5 μL of β-Glucuronidase/Arylsulfatase enzyme overnight in a drying oven at 37 °C for enzymatic hydrolysis to release conjugated compounds. 50 μL of a mix of internal standards (10 ng/mL) and 600 μL of methanol were added to the samples, then mixed by vortexing for 1 min and centrifuged for 10 min at 3400g. The individual supernatants were transferred to glass LC vials and evaporated to approximately 50 μL at 45 °C under a gentle stream of nitrogen. Finally, 0.1 mol/ L ammonium acetate buffer was added to a final volume of 100 μL and then transferred to an insert for analysis.
HEK293 cells overexpressing the respective CYP enzymes were seeded onto 6-well plates and were treated with or without 10 µM of the respective probe drug in DMEM medium for 24 hours at 37 °C and 5 % CO2. After incubation 200 µL DMEM were collected, cells were washed with PBS and adherent cells were lysed in 500 µL methanol for 20 minutes. Analytes were measured by LC-MS/MS either in methanol cell lysates or in DMEM supernatant.
50 µL of DMEM samples were protein precipitated by adding 200 µL of methanol and were centrifuged for 20 min, 17,000 g and 4°C. Supernatants were diluted in water or 40 % methanol according to dilution factor. Methanol cell lysates were diluted ½ with water and centrifuged for 20 min, 17,000 g and 4°C. 5 µL of the processed samples were injected for LC-MS analysis.

| SMILES | Quantification of metabolites generated from PCB28, 52, and 101 (CYP2A6 Clone C4) | Quantification of metabolites generated from PCB28, 52, and 101 (CYP2A6 Clone C5) | Metabolite concentration formed, range across cell clones (HEK293CYP2A6 cell lines) | Quantification of metabolites generated from PCB28, 52, and 101 (CYP2A6 Clone B7) |
| --- | --- | --- | --- | --- |
| Oc1cc(Cl)c(-c2ccc(Cl)cc2)cc1Cl [4-OHCB31, 2,4′,5-trichloro-4-biphenylol] | 0,63 nM | 0,11 nM | 0.18–1.31 µg/L and 0.66–4.8 nM |  |
| Oc1cc(-c2ccc(Cl)cc2)c(Cl)cc1Cl [5-OHCB28, 2,4,4′-trichloro-5-biphenylol] | 1,33 nM | 0,22 nM |  | 1,84 nM |

From publication PMC11489226 (Archives of Toxicology, 2024)
